The values that follow come from PubChem BioAssay AID1963827 (Molecular Pharmacology Branch, DTP, NCI, 2024).

This assay concerns 994946-033-R-J1-PDC complex spheroid viability. The assay is described as follows: Anticancer human tumor 994946-033-R-J1-PDC patient-derived melanoma cell line growth inhibition [POLQ]. Conditions: for viability, T/C: stronger effect = lower value; for IC50: curve of compound. How it is done:
Multicellular complex tumor spheroid response to Polymerase (POL) inhibitors (novobiocin, ART-558, RP6685) in combination with a variety of drugs and investigational agents in selected tumor cell lines
The POL inhibitors (novobiocin, ART-558, and RP6685) were evaluated both individually and in combination with standard of care and investigational anticancer small molecules within a complex spheroid model of solid tumors. . Complex spheroids include a stromal component modeled by human endothelial cells (HUVEC) and fibroblasts modeled by human mesenchymal stem cells (MSCs). The concentration ranges selected for each drug and investigational agent were based upon clinically achievable concentrations if the clinical Cmax of the agent was known.
Compounds. The drugs and investigational agents: novobiocin (NSC847541), ART-558 (NSC835418), RP-6685 (NSC848927), peposertib (NSC802822), ceralasertib (NSC780249), elimusertib (NSC800525), camonsertib (NSC841442), AZD-1390 (NSC803789), olaparib (NSC753686), talazoparib (NSC767125), rucaparib (NSC756644), sotorasib (NSC818433), MRTX-1133 (NSC836407), SN-38 (NSC673596), topotecan (NSC609699), epotoside (NSC141540), doxorubicin (NSC123127), gemcitabine (NSC613327), 5-fluorouracil (NSC19893), paclitaxel (NSC125973), vemurafenib (NSC761431), MSA-2 (NSC828583), SN-011 (NSC837082), adavosertib (NSC754352), prexasertib (NSC758257), carboplatin (NSC241240) and oxaliplatin (NSC266046), were obtained from the National Cancer Institute (NCI) Developmental Therapeutics Program Chemical Repository (21). The FDA-approved anticancer drug set is available from the Developmental Therapeutics Program at https://dtp.cancer.gov/organization/dscb/obtaining/. […] The stock solutions were prepared in dimethyl sulfoxide (DMSO, Sigma-Aldrich, St. Louis, MO, cat. D2650), except for the platinum compounds which were prepared in saline (Quality Biological, Gaithersburg, MD, cat. 114-055-101), at 800-fold the tested concentration and stored at -70 degrees C prior to their use. All drugs and investigational agents were tested over a range starting from a high concentration at or near the clinical Cmax and decreasing in half-log increments. If the clinical Cmax for an agent had not been determined, the highest concentration tested was 10 microM, except for SN-38, which was tested at a high concentration of 1 microM.
Cell Culture. All cells were maintained in an incubator at 37 degrees C and 5% CO2 with 95% humidity. The PDC lines were cultured according to standard operating procedures established by the NCI PDMR (https://pdmr.cancer.gov). Table 3 of the manuscript, lists the cell lines along with the number of the three cell types plated to form the mct-spheroids and media for tumor cell growth. After thawing, all PDC lines, except 997537-175-T-J1-PDC and 415267-285-R-J2-PDC, were cultured in Matrigel-coated flasks prepared with a working solution of 1X Ham's F-12 nutrient mix, without supplementation (Thermo Fisher Scientific, cat. 11765054), 100 U/mL penicillin-streptomycin (Thermo Fisher Scientific, cat. 15140122), and 2.5% Matrigel (Corning Inc., Corning, NY, cat. 354248) for the first three passages. The two PDC lines 997537-175-T-J1-PDC and 415267-285-R-J2-PDC were cultured on uncoated flasks. The 857933-349-R-J2-PDC line was cultured in 6C/Colon 1B media containing advanced DMEM/F-12 (Thermo Fisher Scientific, cat. 12634028), 10 mM HEPES (Thermo Fisher Scientific, cat. 15630080), 1X GlutaMAX supplement (Thermo Fisher Scientific, cat. 35050061), 0.1 mg/mL primocin (InvivoGen, San Diego, CA, cat. ant-pm-2), 10% defined fetal bovine serum, heat inactivated (HyClone Laboratories Inc., Logan, UT, cat. SH30070.03HI), 50% L-WRN conditioned media (ATCC, cat. CRL-3276), 1.25 mM N-Acetyl-L-cysteine (Sigma-Aldrich, cat. A9165), 10 mM nicotinamide (Sigma-Aldrich, cat. N0636), 1X B-27 supplement (Thermo Fisher Scientific, cat. 17504044), 1X N-2 supplement (Thermo Fisher Scientific, cat. […]

The structures appear in SMILES notation. Values joined by “and” are separate entries in the source; they are usually repeats but may differ in a detail not shown here. Identical values can stand only once.
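Also: spheroids exposed to drugs for 7 days.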

The term viability, T/C denotes the result in the treated group divided by that in the control group, in per cent. In general, IC50 refers to the concentration that gives 50% inhibition. With `C=CCn1c(=O)c2cnc(Nc3ccc(N4CCN(C)CC4)cc3)nc2n1-c1cccc(C(C)(C)O)n1`, the IC50 is 691 nM and 608 nM and 651 nM. In addition, for the setting “compound 0.00316 µM”, the viability, T/C was 106% and 121% and 99.1%. Also, for the setting “compound 0.01 µM”, the viability, T/C was 109% and 114% and 99.8%. In addition, the viability, T/C (compound 0.0316 µM) was 113% and 106% and 123%. For the same compound, the viability, T/C (compound 0.1 µM) was 105% and 97.1% and 72.5%. In addition, for the setting “compound 0.316 µM”, the viability, T/C is 97.5% and 68.8% and 88.4%. Where the note is “compound 1 µM”, the viability, T/C is 27.4% and 34.9% and 30.9%.
Consider `CC(=O)O[C@H]1C(=O)[C@@]2(C)[C@H]([C@H](OC(=O)c3ccccc3)[C@]3(O)C[C@H](OC(=O)[C@H](O)[C@@H](NC(=O)c4ccccc4)c4ccccc4)C(C)=C1C3(C)C)[C@]1(OC(C)=O)CO[C@@H]1C[C@@H]2O`, for which the IC50 was under 9.49 nM. Besides, the viability, T/C (compound 0.00949 µM) is 24.4% and 24.8% and 18.7%. Also, the viability, T/C (compound 0.03 µM) was 21.9% and 23.1% and 18.1%. For the same compound, for the setting “compound 0.0949 µM”, the viability, T/C was 18.5% and 17.9% (2×). For the setting “compound 0.3 µM”, the viability, T/C is 17.7% and 11.9% and 15.6%. Also, for the setting “compound 0.949 µM”, the viability, T/C is 18.8% and 15.4% and 12.7%. Moreover, the viability, T/C (compound 3 µM) is 11.4% and 13% and 9.5%.
As for `CC[C@@]1(O)C(=O)OCc2c1cc1n(c2=O)Cc2cc3c(CN(C)C)c(O)ccc3nc2-1`, the IC50 was 17.6 nM and 32.8 nM and 22.1 nM. Also, the viability, T/C (compound 0.000316 µM) is 86.1% and 53.9% and 105%. For the same compound, the viability, T/C (compound 0.001 µM) was 101% and 95.2% and 87.8%. Where the note is “compound 0.00316 µM”, the viability, T/C is 86.5% and 108% and 111%. For the same compound, under “compound 0.01 µM”, the viability, T/C was 71.5% and 74% and 68.2%. For the same compound, under “compound 0.0316 µM”, the viability, T/C is 28% and 52% and 41.7%. The viability, T/C (compound 0.1 µM) is 13.2% and 9.44% and 10.1%.
In the case of `CCc1c2c(nc3ccc(O)cc13)-c1cc3c(c(=O)n1C2)COC(=O)[C@]3(O)CC`, the IC50 is under 3.16 nM. For the same compound, the viability, T/C (compound 0.00316 µM) was 17% and 30.3% and 19.5%. The viability, T/C (compound 0.01 µM) is 6.95% and 12.2% and 10.6%. Also, the viability, T/C (compound 0.0316 µM) was 5.85% and 6.99% and 4.96%. Further, the viability, T/C (compound 0.1 µM) was 3.9% and 5.58% and 5.13%. The viability, T/C (compound 0.316 µM) is 3.05% and 4.94% and 3.67%. The viability, T/C (compound 1 µM) is 1.76% and 2.96% and 1.2%.
With `CNCc1ccc(-c2[nH]c3cc(F)cc4c3c2CCNC4=O)cc1`, the IC50 was over 10000 nM. Further, under “compound 0.0316 µM”, the viability, T/C was 90.6% and 92.2% and 105%. For the same compound, the viability, T/C (compound 0.1 µM) is 111% and 79.6% and 87%. Besides, under “compound 0.316 µM”, the viability, T/C was 112% and 90% and 90.3%. The viability, T/C (compound 1 µM) is 107% and 83.3% and 103%. The viability, T/C (compound 3.16 µM) is 110% and 98.3% and 105%. Further, the viability, T/C (compound 10 µM) is 93.4% and 76.8% and 66.9%.
As to `COc1cc(C2c3cc4c(cc3C(OC3OC5COC(C)OC5C(O)C3O)C3COC(=O)C23)OCO4)cc(OC)c1O` (centres undefined), the IC50 is 212 nM and 240 nM and 313 nM. For the same compound, the viability, T/C (compound 0.0316 µM) is 92.1% and 89.8% and 87.4%. Also, the viability, T/C (compound 0.1 µM) was 56.1% and 74.7% and 56.7%. In addition, the viability, T/C (compound 0.316 µM) is 42.6% and 37.3% and 54.9%. Also, under “compound 1 µM”, the viability, T/C was 36.4% and 29.4% and 38.1%. In addition, for the setting “compound 3.16 µM”, the viability, T/C is 15% and 14.1% and 14.8%. The viability, T/C (compound 10 µM) was 5.65% and 9.75% and 6.75%.
As for `COc1cccc(OCCCN)c1-c1cc(Nc2cnc(C#N)cn2)n[nH]1`, the IC50 was 13.7 nM and 19.7 nM and 57.5 nM. Further, the viability, T/C (compound 0.00316 µM) is 75.6% and 100% and 79.2%. For the same compound, the viability, T/C (compound 0.01 µM) is 60.5% and 80.8% and 75.1%. Moreover, the viability, T/C (compound 0.0316 µM) is 14.7% and 28.4% and 65.5%. In addition, where the note is “compound 0.1 µM”, the viability, T/C is 29.1% and 32.4% and 35.9%. Where the note is “compound 0.316 µM”, the viability, T/C was 28.6% and 28.5% and 17.2%. The viability, T/C (compound 1 µM) was 16.6% and 16.5% and 12.6%.
Turning to `COc1cccc2c1C(=O)c1c(O)c3c(c(O)c1C2=O)CC(O)(C(=O)CO)CC3OC1CC(N)C(O)C(C)O1` (centres undefined), the half-inhibitory concentration (IC50) is under 31.6 nM. In addition, for the setting “compound 0.0316 µM”, the viability, T/C was 24.5% and 30.4% and 28.5%. The viability, T/C (compound 0.1 µM) was 5.96% and 8.53% and 11.6%. Further, the viability, T/C (compound 0.316 µM) was 2.17% and 5.76% and 2.69%. Further, the viability, T/C (compound 1 µM) is 1.78% and 1.25% and 2.38%. Also, the viability, T/C (compound 3.16 µM) is 2.29% and 1.69% and 2.17%. For the same compound, the viability, T/C (compound 10 µM) is 2.7% and 0.94% and 0.62%.
Turning to `Cn1ncnc1[C@H]1c2n[nH]c(=O)c3cc(F)cc(c23)N[C@@H]1c1ccc(F)cc1`, the IC50 was > 100 nM and 61.9 nM. Also, where the note is “compound 0.000316 µM”, the viability, T/C was 118% and 108% and 103%. Where the note is “compound 0.001 µM”, the viability, T/C was 82.7% and 80.6% and 106%. Moreover, the viability, T/C (compound 0.00316 µM) was 69.9% and 79.6% and 106%. Under “compound 0.01 µM”, the viability, T/C is 104% and 80% and 82.1%. Also, the viability, T/C (compound 0.0316 µM) is 87.1% and 53.5% and 66.7%. The viability, T/C (compound 0.1 µM) was 65.3% and 44.1% and 65.5%.
With `Nc1ccn(C2OC(CO)C(O)C2(F)F)c(=O)n1` (centres undefined), the IC50 was under 31.6 nM. For the same compound, the viability, T/C (compound 0.0316 µM) is 26% and 34.1% and 24.7%. Also, the viability, T/C (compound 0.1 µM) was 4.77% and 7.08% and 7.51%. Further, the viability, T/C (compound 0.316 µM) is 5.46% and 6.51% and 7.23%. The viability, T/C (compound 1 µM) is 6.12% and 6.87% and 8.28%. Moreover, the viability, T/C (compound 3.16 µM) is 4.43% and 9.96% and 4.73%. The viability, T/C (compound 10 µM) was 1.87% and 3.82% and 1.78%.
As for `O=C(c1cc(Cc2n[nH]c(=O)c3ccccc23)ccc1F)N1CCN(C(=O)C2CC2)CC1`, the IC50 was 5190 nM and 4150 nM and 4320 nM. The viability, T/C (compound 0.0316 µM) is 98.7% and 77.9% and 85.7%. Moreover, the viability, T/C (compound 0.1 µM) is 94% and 103% and 89.2%. Under “compound 0.316 µM”, the viability, T/C was 101% and 90.9% and 80.3%. For the same compound, the viability, T/C (compound 1 µM) is 91.5% and 88.8% and 54.5%. The viability, T/C (compound 3.16 µM) was 63.4% and 55.2% and 62.6%. Moreover, under “compound 10 µM”, the viability, T/C is 32.4% and 33.3% and 36.9%.
As to `O=c1[nH]cc(F)c(=O)[nH]1`, the IC50 is 4220 nM and > 10000 nM. Under “compound 0.0316 µM”, the viability, T/C was 115% and 112% and 96.8%. The viability, T/C (compound 0.1 µM) is 95.1% and 107% and 103%. Also, for the setting “compound 0.316 µM”, the viability, T/C was 71.1% and 97.4% and 103%. Also, the viability, T/C (compound 1 µM) was 63.1% and 67.9% and 60.2%. The viability, T/C (compound 3.16 µM) is 50.7% and 73.6% and 64%. For the same compound, for the setting “compound 10 µM”, the viability, T/C is 45.7% and 47.6% and 54.8%.
